Data published in US20260049072A1, “HETEROCYCLIC COMPOUND FOR INDUCING DEGRADATION OF MUTANT KRAS PROTEIN” (Astellas Pharma Inc., priority 2022, published 2026).

Test system: PA-TU-8902 cells
Experiment: Non-anchorage-dependent cell growth inhibition (spheroid 3D culture), PA-TU-8902
Format: cell-based, human
Settings: Homo sapiens, PaTu 8902, 144 h; KRAS G12V mutant-positive, 3D spheroid, six days, CellTiter-Glo 2.0; read-out: PA-TU-8902 IC50
Description: Test Example 3: Evaluation of Non-Anchorage-Dependent Cell Growth Inhibitory Activity on Human KRAS G12V Mutant-Positive Pancreatic Cancer Line PA-TU-8902, Human KRAS G12D Mutant-Positive Pancreatic Cancer Line AsPC-1 or Human KRAS G12C Mutant-Positive Pancreatic Cancer Line MIA PaCa-2
The non-anchorage-dependent cell growth inhibitory activities of subject compounds were evaluated by spheroid 3D cell culture.
PA-TU-8902 cells, AsPC-1 cells or MIA PaCa-2 cells (RIKEN BRC, RCB2094) were seeded at 36 µL/well on a low-cell-adhesive round bottom 384-well plate (Prime Surface: from Sumitomo Bakelite) to give 5×10^2 cells per well. The PA-TU-8902 cells were under the same conditions as in Test Example 1-1, and the AsPC-1 cells were under the same conditions as in Test Example 1-2. For the MIA PaCa-2 cells, RPMI-1640 medium containing 10% fetal bovine serum was used in the presence of 5% CO2 at 37° C.
The next day, the subject compounds (6-9 points having final concentrations in the range of 3 μM to 0.3 nM) and DMSO, which was the solvent for the subject compounds, as a negative control were diluted 100-fold with a fresh medium and were each added at 4 μL per well. After culturing in the presence of 5% CO2 at 37° C. for six days, CellTiter-Glo 2.0 (from Promega) was added at 20 μL per well. After stirring with a plate mixer (from FINEPCR) at normal temperature for an hour, the luminescent signals were measured with ARVO X3 (from PerkinElmer).
With the signaling value in treatment with DMSO taken as 0% inhibition and with the signaling value in the medium alone without cells taken as 100% inhibition, the 50% inhibition values (IC50) were calculated by Sigmoid-Emax model nonlinear regression analysis.

Structure (SMILES) | IC50
CO[C@@H](C)COc1nc(OC2CN(C(=O)NCCN3CCCC3)C2)c2cc(C3CC3)c(-c3c(C)c(F)cc4[nH]ncc34)c(OCc3ccc(-c4cn([C@H](C(=O)N5C[C@H](O)C[C@H]5C(=O)N[C@@H](CO)c5ccc(-c6scnc6C)cc5)C(C)C)nn4)cc3)c2n1 (atropisomer, axis not shown) [Example 22] | 0.065 µM
CO[C@@H](C)COc1cc(OC2CN(C(=O)N3CC[C@@H](N(C)C)C3)C2)c2cc(C3CC3)c(-c3c(C)c(F)cc4[nH]ncc34)c(OCc3ccc(-c4cn([C@H](C(=O)N5C[C@H](O)C[C@H]5C(=O)N[C@@H](CO)c5ccc(-n6cncn6)cc5)C(C)C)nn4)cc3)c2n1 (atropisomer, axis not shown) [Example 7] | 0.081 µM
CO[C@@H](C)COc1nc(NC2CN(C(=O)N3CCN(C)CC3)C2)c2cc(C3CC3)c(-c3c(C)c(F)cc4[nH]ncc34)c(OCc3ccc(-c4cn([C@H](C(=O)N5C[C@H](O)C[C@H]5C(=O)N[C@@H](CO)c5ccc(-n6cncn6)cc5)C(C)C)nn4)cc3)c2n1 (atropisomer, axis not shown) [Example 27] | 0.122 µM
Cc1c(F)cc2[nH]ncc2c1-c1c(C2CC2)cc2c(NC3CN(C(=O)NCCN(C)C)C3)nc(OC[C@@H]3CCCO3)nc2c1OCc1ccc(-c2cn([C@H](C(=O)N3C[C@H](O)C[C@H]3C(=O)N[C@@H](CO)c3ccc(-n4cncn4)cc3)C(C)C)nn2)cc1 (atropisomer, axis not shown) [Example 32] | 0.105 µM
CO[C@@H](C)COc1cc(OC2CN(C(=O)N3CC(CN(C)C)C3)C2)c2cc(C3CC3)c(-c3c(C)c(F)cc4[nH]ncc34)c(OCc3ccc(-c4cn([C@H](C(=O)N5C[C@H](O)C[C@H]5C(=O)N[C@@H](CO)c5ccc(N6CCOC6=O)cc5)C(C)C)nn4)cc3)c2n1 (atropisomer, axis not shown) [Example 8] | 0.102 µM
CO[C@@H](C)COc1nc(NC2CN(C(=O)O[C@H]3C[C@@H](N(C)C)C3)C2)c2cc(C3CC3)c(-c3c(C)c(F)cc4[nH]ncc34)c(OCc3ccc(-c4cn([C@H](C(=O)N5C[C@H](O)C[C@H]5C(=O)N[C@@H](CO)c5ccc(-c6scnc6C)nc5)C(C)C)nn4)cc3)c2n1 (atropisomer, axis not shown) [Example 3] | 0.16 µM
Cc1ncsc1-c1ccc([C@H](CO)NC(=O)[C@@H]2C[C@@H](O)CN2C(=O)[C@H](C(C)C)n2cc(-c3ccc(COc4c(-c5c(C)c(F)cc6[nH]ncc56)c(C5CC5)cc5c(N6CC(C#N)C6)nc(OC[C@@H]6CCN(C)C6)nc45)cc3)nn2)cc1 [Example 38] | 0.177 µM
Cc1ncsc1-c1ccc([C@H](CO)NC(=O)[C@@H]2C[C@@H](O)CN2C(=O)[C@H](C(C)C)n2cc(-c3ccc(COc4c(-c5c(C)c(F)cc6[nH]ncc56)c(C5CC5)cc5c(OC6CN(C(=O)NCCN(C)C)C6)nc(OC6CCN(CC(F)F)CC6)nc45)cc3)nn2)cc1 (atropisomer, axis not shown) [Example 31] | 0.067 µM
CC[C@H](C)[C@@H](C(=O)N1C[C@H](O)C[C@H]1C(=O)N[C@@H](CO)c1ccc(-c2scnc2C)cc1)n1cc(-c2ccc(COc3c(-c4c(C)c(F)cc5[nH]ncc45)c(C4CC4)cc4c(O[C@H]5CCN(C(=O)NCCN(C)C)C5)nc(OC[C@H](C)OC)nc34)cc2)nn1 (single isomer, unassigned) [Example 28] | 0.159 µM
CO[C@@H](C)COc1nc(N(C)C2CN(C(=O)CCCN(C)C)C2)c2cc(C3CC3)c(-c3c(C)c(F)cc4[nH]ncc34)c(OCc3ccc(-c4cn([C@H](C(=O)N5C[C@H](O)C[C@H]5C(=O)N[C@@H](CO)c5ccc(-c6scnc6C)cc5)C(C)C)nn4)cc3)c2n1 (atropisomer, axis not shown) [Example 24] | 0.125 µM
CO[C@@H](C)COc1nc(NC2CN(C(=O)OCCN(C)C)C2)c2cc(C3CC3)c(-c3c(C)c(F)cc4[nH]ncc34)c(OCc3ccc(-c4cn([C@H](C(=O)N5C[C@H](O)C[C@H]5C(=O)N[C@@H](CO)c5ccc(-c6scnc6C)cc5)C(C)C)nn4)cc3)c2n1 (atropisomer, axis not shown; (M)) [Example 34, 2-(dimethylamino)ethyl 3-({(7M)-6-cyclopropyl-7-(6-fluoro-5-methyl-H-indazol-4-yl)-8-{[4-(1-{(2S)-1-[(2S,4R)-4-hydroxy-2-({(1R)-2-hydroxy-1-[4-(4-methyl-1,3-thiazol-5-yl)phenyl]ethyl}carbamoyl)pyrrolidin-1-yl]-3-methyl-1-oxobutan-2-yl}-1H-1,2,3-triazol-4-yl)phenyl]methoxy}-2-[(2S)-2-methoxypropoxy]quinazolin-4-yl}amino)azetidine-1-carboxylate] | 0.109 µM
CO[C@@H](C)COc1nc(N2CC[C@H]2C(N)=O)c2cc(C3CC3)c(-c3c(C)c(F)cc4[nH]ncc34)c(OCc3ccc(-c4cn([C@H](C(=O)N5C[C@H](O)C[C@H]5C(=O)N[C@@H](CN(C)C)c5ccc(-c6scnc6C)cc5)C(C)C)nn4)cc3)c2n1 (atropisomer, axis not shown) [Example 37] | 0.078 µM
Cc1c(F)cc2[nH]ncc2c1-c1c(C2CC2)cc2c(OC3CN(C(=O)NCCN(C)C)C3)nc(OC3CCOCC3)nc2c1OCc1ccc(-c2cn([C@H](C(=O)N3C[C@H](O)C[C@H]3C(=O)N[C@@H](CO)c3ccc(-n4cccn4)cc3)C(C)C)nn2)cc1 [Example 30] | 0.235 µM
Cc1ncsc1-c1ccc([C@H](CCO)NC(=O)[C@@H]2C[C@@H](O)CN2C(=O)[C@H](C(C)C)n2cc(-c3ccc(COc4c(-c5c(C)c(F)cc6[nH]ncc56)c(C5CC5)cc5c(NC6CN(C(=O)NCCN(C)C)C6)nc(OC6CCOCC6)nc45)cc3)nn2)cc1 [Example 39, (4R)-1-[(2S)-2-(4-{4-[({(7M)-6-cyclopropyl-4-[(1-{[2-(dimethylamino)ethyl]carbamoyl}azetidin-3-yl)oxy]-7-(6-fluoro-5-methyl-1H-indazol-4-yl)-2-[(oxan-4-yl)oxy]quinazolin-8-yl}oxy)methyl]phenyl}-1H-1,2,3-triazol-1-yl)-3-methylbutanoyl]-4-hydroxy-N-{(1S)-3-hydroxy-1-[4-(4-methyl-1,3-thiazol-5-yl)phenyl]propyl}-L-prolinamide] | 0.052 µM
Cc1ncsc1-c1ccc([C@H](CO)NC(=O)[C@@H]2C[C@@H](O)CN2C(=O)[C@H](C(C)C)n2cc(-c3ccc(COc4c(-c5c(C)c(F)cc6[nH]ncc56)c(C5CC5)cc5c(N(C)C6CN(C(=O)O[C@H]7CCN(C)C7)C6)nc(OC6CCOCC6)nc45)cc3)nn2)cc1 (atropisomer, axis not shown) [Example 33] | 0.103 µM
Cc1ncsc1-c1ccc([C@H](CO)NC(=O)[C@@H]2C[C@@H](O)CN2C(=O)[C@H](C(C)C)n2cc(-c3ccc(COc4c(-c5c(C)c(F)cc6[nH]ncc56)c(C5CC5)cc5c(OC6CN(C(=O)NCCO)C6)nc(OC6CCOCC6)nc45)cc3)nn2)cc1 [Example 16] | 0.261 µM
COC(C)(C)COc1cc(OC2CN(C(=O)N[C@H]3C[C@@H](N(C)C)C3)C2)c2cc(C3CC3)c(-c3c(C)c(F)cc4[nH]ncc34)c(OCc3ccc(-c4cn([C@H](C(=O)N5C[C@H](O)C[C@H]5C(=O)N[C@@H](CO)c5ccc(-n6cncn6)cc5)C(C)C)nn4)cc3)c2n1 (atropisomer, axis not shown) [Example 10] | 0.069 µM
Cc1ncsc1-c1ccc([C@H](CO)NC(=O)[C@@H]2C[C@@H](O)CN2C(=O)[C@H](C(C)C)n2cc(-c3ccc(COc4c(-c5c(C)c(F)cc6[nH]ncc56)c(C5CC5)cc5c(OC6CN(C(=O)NCCN(C)C)C6)nc(OCC(C)(C)CN(C)C)nc45)cc3)nn2)cc1 [Example 36] | 0.143 µM

Same assay, conditions: KRAS G12V mutant-positive, 3D spheroid, six days, CellTiter-Glo 2.0; read-out: PA-TU-8902 IC50

Structure (SMILES) | IC50
CO[C@@H](C)COc1cc(OC2CN(C(=O)NCCN(C)C)C2)c2cc(C3CC3)c(-c3c(C)c(F)cc4[nH]ncc34)c(OCc3ccc(-c4cn([C@H](C(=O)N5C[C@H](O)C[C@H]5C(=O)N[C@@H](CO)c5ccc(-c6scnc6C)cc5)C(C)C)nn4)cc3)c2n1 [Example 43, (4R)-1-[(2S)-2-(4-{4-[({(7M)-6-cyclopropyl-4-[(1-{[2-(dimethylamino)ethyl]carbamoyl}azetidin-3-yl)oxy]-7-(6-fluoro-5-methyl-1H-indazol-4-yl)-2-[(2S)-2-methoxypropoxy]quinolin-8-yl}oxy)methyl]phenyl}-1H-1,2,3-triazol-1-yl)-3-methylbutanoyl]-4-hydroxy-N-{(1R)-2-hydroxy-1-[4-(4-methyl-1,3-thiazol-5-yl)phenyl]ethyl}-L-prolinamide] | 0.061 µM
